Patent US20220386606A1, “SPECIFICALLY SUBSTITUTED 3-PHENYL-5-SPIROCYCLOPENTYL-3-PYRROLIN-2-ONES AND THEIR USE AS HERBICIDES” (Bayer Aktiengesellschaft, priority 2019, published 2022)

Legend:
ALOMY [1] = test: Pre-emergence herbicidal action against ALOMY; assay type: in vivo, Alopecurus myosuroides; conditions: 320 g/ha, scored visually after 3 weeks vs untreated controls
Source text: (§1) Seeds of monocotyledonous and dicotyledonous weed plants and crop plants are laid out in sandy loam soil in wood-fiber pots and covered with soil. The compounds of the invention, formulated in the form of wettable powders (WP) or as emulsion concentrates (EC), are then applied to the surface of the covering soil as aqueous suspension or emulsion at a water application rate equating to 600 to 800 L/ha with addition of 0.2% wetting agent.
(§2) After the treatment, the pots are placed in a greenhouse and kept under good growth conditions for the trial plants. The damage to the test plants is scored visually after a test period of 3 weeks by comparison with untreated controls (herbicidal activity in percent (%): 100% activity=the plants have died, 0% activity=like control plants).

AVEFA [2] = test: Pre-emergence herbicidal action against AVEFA; assay type: in vivo, Avena fatua; conditions: 320 g/ha, scored visually after 3 weeks vs untreated controls
Source text: as §1, §2

DIGSA [3] = test: Pre-emergence herbicidal action against DIGSA; assay type: in vivo, Digitaria sanguinalis; conditions: 320 g/ha, scored visually after 3 weeks vs untreated controls
Source text: as §1, §2

ECHCG [4] = test: Pre-emergence herbicidal action against ECHCG; assay type: in vivo, Echinochloa crus-galli; conditions: 320 g/ha, scored visually after 3 weeks vs untreated controls
Source text: as §1, §2

LOLRI [5] = test: Pre-emergence herbicidal action against LOLRI (Table 8, titled post-emergence at 320 g/ha); assay type: in vivo, Lolium rigidum; conditions: table stands in the pre-emergence section
Source text: as §1, §2

SETVI [6] = test: Pre-emergence herbicidal action against SETVI; assay type: in vivo, Setaria viridis; conditions: 320 g/ha, scored visually after 3 weeks vs untreated controls
Source text: as §1, §2

AMARE = test: Pre-emergence herbicidal action against AMARE; assay type: in vivo, Amaranthus retroflexus; conditions: 320 g/ha
Source text: as §1, §2

VIOTR = test: Pre-emergence herbicidal action against VIOTR; assay type: in vivo, Viola tricolor; conditions: 320 g/ha
Source text: as §1, §2

ALOMY [7] = test: Post-emergence herbicidal action against ALOMY; assay type: in vivo, Alopecurus myosuroides; conditions: 80 g/ha, visual assessment after about 3 weeks
Description: (§3) Seeds of monocotyledonous and dicotyledonous weed and crop plants are laid out in sandy loam soil in wood-fiber pots, covered with soil and cultivated in a greenhouse under good growth conditions. 2 to 3 weeks after sowing, the test plants are treated at the one-leaf stage. The compounds of the invention, formulated in the form of wettable powders (WP) or as emulsion concentrates (EC), are then sprayed onto the green parts of the plants as aqueous suspension or emulsion at a water application rate equating to 600 to 800 l/ha with addition of 0.2% wetting agent. After the test plants have been left to stand in the greenhouse under optimal growth conditions for about 3 weeks, the action of the preparations is assessed visually in comparison to untreated controls (herbicidal action in percent (%): 100% activity=the plants have died, 0% activity=like control plants).

DIGSA [8] = test: Post-emergence herbicidal action against DIGSA; assay type: in vivo, Digitaria sanguinalis; conditions: 80 g/ha, visual assessment about 3 weeks after treatment vs untreated controls
Description: as §3

ECHCG [9] = test: Post-emergence herbicidal action against ECHCG; assay type: in vivo, Echinochloa crus-galli; conditions: 80 g/ha, visual assessment about 3 weeks after treatment vs untreated controls
Description: as §3

SETVI [10] = test: Post-emergence herbicidal action against SETVI; assay type: in vivo, Setaria viridis; conditions: 80 g/ha, visual assessment about 3 weeks after treatment vs untreated controls
Description: as §3

VERPE = test: Pre-emergence herbicidal action against VERPE; assay type: in vivo, Veronica persica; conditions: 320 g/ha
Source text: as §1, §2

AVEFA [11] = test: Post-emergence herbicidal action against AVEFA; assay type: in vivo, Avena fatua; conditions: 80 g/ha, visual assessment after about 3 weeks
Description: as §3

LOLRI [12] = test: Post-emergence herbicidal action against LOLRI; assay type: in vivo, Lolium rigidum; conditions: 80 g/ha, visual assessment about 3 weeks after treatment vs untreated controls
Description: as §3

Structure (SMILES)	Pre-emergence action against ALOMY in % (ALOMY [1]) [%]	Pre-emergence action against AVEFA in % (AVEFA [2]) [%]	Pre-emergence action against DIGSA in % (DIGSA [3]) [%]	Pre-emergence action against ECHCG in % (ECHCG [4]) [%]	Pre-emergence herbicidal action against LOLRI in % (LOLRI [5]) [%]	Pre-emergence action against SETVI in % (SETVI [6]) [%]	Pre-emergence action against AMARE in % (AMARE) [%]	Pre-emergence action against VIOTR in % (VIOTR) [%]	Post-emergence action against ALOMY in % (ALOMY [7]) [%]	Post-emergence action against DIGSA in % (DIGSA [8]) [%]	Post-emergence action against ECHCG in % (ECHCG [9]) [%]	Post-emergence action against SETVI in % (SETVI [10]) [%]	Pre-emergence action against VERPE in % (VERPE) [%]	Post-emergence action against AVEFA in % (AVEFA [11]) [%]	Post-emergence action against LOLRI in % (LOLRI [12]) [%]
CC#Cc1cc(C)c(C2=C(O)C3(CCC(COCC)C3)NC2=O)c(Br)c1 (centres unmarked) [Example I-21]	100	100	100	100	100	100	100	100	100	100	100	100	–	–	–
CC#Cc1cc(Br)c(C2=C(O)C3(CCC(COCC)C3)NC2=O)c(CC)c1 (centres unmarked) [Example I-24]	–	–	–	–	–	–	–	–	–	–	–	–	80	–	–
CC#Cc1cc(C)c(C2=C(O)C3(CCC(COCCOC)C3)NC2=O)c(OC)c1 (centres unmarked) [Example I-52]	100	100	100	100	100	100	80	80	100	–	100	100	–	90	90
CC#Cc1cc(C)c(C2=C(OC(=O)C(C)C)C3(CCC(COCC)C3)NC2=O)c(Br)c1 (centres unmarked) [Example P-36]	100	80	100	90	100	100	–	100	100	90	90	100	80	–	–
CC#Cc1cc(C)c(C2=C(OC(=O)C(C)C)C3(CCC(COC)C3)NC2=O)c(OC)c1 (centres unmarked) [Example P-46]	100	100	100	100	100	100	100	100	100	100	100	100	–	90	100
CC#Cc1cc(C)c(C2=C(OC(=O)OCC)C3(CCC(COCC)C3)NC2=O)c(OC)c1 (centres unmarked) [Example P-48]	100	100	100	100	100	100	–	100	100	100	100	100	80	90	100
CC#Cc1cc(C)c(C2=C(OC(=O)C(C)C)C3(CCC(COC)C3)NC2=O)c(F)c1 (centres unmarked) [Example P-57]	100	80	100	100	100	100	80	100	100	100	100	100	–	90	100
CC#Cc1cc(F)c(C2=C(OC(=O)C(C)C)C3(CCC(COCC)C3)NC2=O)c(OC)c1 (centres unmarked) [Example P-67]	100	80	100	100	90	100	80	–	100	–	100	100	80	90	90
CC#Cc1cc(F)c(C2=C(OC(=O)OCC)C3(CCC(COCC)C3)NC2=O)c(OC)c1 (centres unmarked) [Example P-69]	100	80	100	100	100	100	–	80	100	80	100	100	90	90	90
C=CCOCC1CCC2(C1)NC(=O)C(c1c(F)cc(C#CC)cc1OC)=C2OC(=O)OCC (centres unmarked) [Example P-77]	100	90	100	100	100	100	–	100	90	80	100	100	80	–	–
CC#Cc1cc(C)c(C2=C(OC(=O)OCC)C3(CCC(COCCC)C3)NC2=O)c(OC)c1 (centres unmarked) [Example P-83]	100	80	100	100	100	100	–	90	100	100	100	100	80	90	100
C=CCOCC1CCC2(C1)NC(=O)C(c1c(C)cc(C#CC)cc1Br)=C2OC(=O)OCC (centres unmarked) [Example P-85]	100	80	100	100	100	100	–	100	80	90	100	100	90	–	90
